From PMC11345829, “Discovery of Potent Isoquinolinequinone N-Oxides to Overcome Cancer Multidrug Resistance” (Journal of Medicinal Chemistry, 2024) come the findings set out here.

The subject of data set [1] is NCI-H460 cells. The data set is described as follows: BrdU incorporation assay (cell proliferation). The data set is classed as cell-based, human. To be noted: 48 h; 25 at 0.35 and 0.7 μM; doxorubicin 50 nM. How it is done:
To assess the impact of compound 25 on cell proliferation, the bromodeoxyuridine (BrdU) incorporation assay was performed.
Figure 7 Effect of compound 25 on the % of proliferating NCI-H460 cells, determined with the BrdU assay. […] (A) Percentage of BrdU-incorporating cells under different treatments. Results are the mean ± SEM from at least 3 independent experiments. * p ≤ 0.05, ** p ≤ 0.01, when comparing DMSO vs compound treatment.
At 4 h before the end of this treatment, cells were incubated with 1 μM of BrdU (Merck Life Science). After collection of cells, they were fixed with paraformaldehyde 4% (Merck Life Science) for 40 min at room temperature (RT). Then, cells were subjected to a cytospin (500 rpm for 5 min), and cellular DNA was denaturated using 2 M of HCl (Merck Life Science) for 20 min. Cells were incubated with a PBS solution containing 0.5% Tween (Promega, Madison, Wisconsin, USA) and 0.05% bovine serum albumin (BSA; Merck Life Science). The cells were further incubated with a primary monoclonal mouse anti-BrdU Clone Bu20a antibody (1:10; Dako, Glostrup, Denmark) for 1 h, followed by incubation with a polyclonal rabbit antimouse immunoglobulins/FITC secondary antibody (1:100; Dako) for 30 min at RT. […] The cells were counted using the ImageJ 2.1.0 software.
A general note: Uptake of a labelled nucleoside into DNA is a usual measure of proliferation.

Data set [2] concerns NCI-H460 cells. The experiment in a line: Cell cycle profile, PI staining flow cytometry. The data set is classed as cell-based, human. To be noted: 48 h; for cell cycle profile: 25 at 0.35 and 0.7 μM, doxorubicin 50 nM. How it is done: The effect of 25 on the cell cycle profile of NCI-H460 cells was assessed.
Figure 8 Effect of compound 25 on the cell cycle profile of NCI-H460 cells, analyzed by flow cytometry (PI staining). […] (A) Frequency (%) of cell cycle phases for each condition. (B) Representative cell cycle histograms. Results are the mean ± SEM from at least 3 independent experiments. * p ≤ 0.05, when comparing DMSO vs compound treatment.
Collected cells were then fixed in ice-cold 70% ethanol (Fisher Scientific) overnight. Cells were then centrifuged again and resuspended in 5 μg/mL of PI (Merck Life Science) and 0.1 mg/mL RNase A (Invitrogen) in PBS, and kept in the dark for at least 30 min. Cellular DNA content was analyzed using the BD Accuri C6 Flow cytometer. At least 10 000 events per sample were acquired. FlowJo 7.6.5 software (Tree Star, Inc., Ashland, Oregon, USA) was used to determine the % of cells in the different phases of the cell cycle.
For orientation: A flow cytometer gives signals particle by particle.

The subject of data set [3] is NCI-H460 cells. The data set is described as follows: Alkaline Comet assay (DNA damage). The data set is classed as cell-based, human. As to conditions: 48 h; 2 × GI50; preliminary, data not shown. How it is done: Hydrogen peroxide (Sigma-Aldrich) was used as a positive control (50 μM). Harvested cells were resuspended in 0.5% low melting point agarose (Thermo Fisher Scientific) and poured onto slides precoated with 1% normal melting point agarose (Sigma-Aldrich). Cells were then lysed with ice-cold lysis buffer [100 mM Na2EDTA (Sigma-Aldrich), […] (Sigma-Aldrich), 10 mM Tris-Base (Sigma-Aldrich), pH 10.0, 1% and Triton X-100 (Sigma-Aldrich)) for 2 h in the dark at 4 °C. Then, after two washes with distilled water, slides were placed on an electrophoresis tank filled with electrophoresis buffer [300 mM NaOH (Sigma-Aldrich), 1 mM Na2EDTA; pH 13.0] and incubated for 40 min to allow DNA to unwind. Electrophoresis was carried out for 20 min at 32 V. Then slides were immersed twice in pure ethanol and allowed to dry at RT. Slides were stained with SyberGold staining solution (Invitrogen) in Tris-EDTA buffer [10 mM Tris-HCl (Sigma-Aldrich) and 1 mM EDTA (Sigma-Aldrich); pH 7.5] for 30 min with agitation and protected from light. In the end, slides washed and dried were visualized on a Zeiss Axio Imager Z1 microscope, equipped with the Axiovision 4.9 software.

Data set [4] concerns the target T1, P-gp mediated drug efflux in NCI-H460/R cells (Homo sapiens, UniProt P08183).
T1 construct: these cells overexpress the MDR1 gene which encodes for P-gp; endogenous in cells; host or cells: NCI-H460/R (doxorubicin-selected MDR human NSCLC cells)
The data set is described as follows: Rhodamine-123 accumulation (drug efflux) assay. As to conditions: 1 h, 10 or 20 μM. The data set is classed as cell-based. How it is done: Figure 11 Relative rhodamine-123 accumulation in NCI-H460 or in NCI-H460/R cells following treatment with compound 25, evaluated by flow cytometry (rhodamine-123 efflux assay). Cells were incubated for 1 h with medium, DMSO (vehicle at the % used in the highest tested concentration of 25), verapamil (positive control), or compound 25 at two different concentrations (10 and 20 μM). Verapamil (20 μM) was used as a positive control (P-gp inhibitor). Results are the mean ± SEM of at least 3 independent experiments. * p ≤ 0.05, when comparing vehicle (DMSO) vs compound treatment in NCI-H460/R cells.
The NSCLC cells (1.5 × 10^5 cells/mL) were incubated for 1 h at 37 °C in the presence of 10 μM or 20 μM of compound 25 and with 1 μM of rhodamine-123 (Sigma-Aldrich). NCI-H460 cells without treatment were used as a negative control and NCI-H460/R cells treated with verapamil (a known P-gp inhibitor) at concentrations of 10 and 20 μM were used as a positive controls.[80],[81] After the incubation time, cells were washed in cold PBS and kept at 4 °C, protected from light until analysis in the flow cytometer. At least 10 000 cells per sample were acquired and analyzed on the BD Accuri C6 flow cytometer.

Molecules are shown by their SMILES.

T1 sequence (P08183 whole entry): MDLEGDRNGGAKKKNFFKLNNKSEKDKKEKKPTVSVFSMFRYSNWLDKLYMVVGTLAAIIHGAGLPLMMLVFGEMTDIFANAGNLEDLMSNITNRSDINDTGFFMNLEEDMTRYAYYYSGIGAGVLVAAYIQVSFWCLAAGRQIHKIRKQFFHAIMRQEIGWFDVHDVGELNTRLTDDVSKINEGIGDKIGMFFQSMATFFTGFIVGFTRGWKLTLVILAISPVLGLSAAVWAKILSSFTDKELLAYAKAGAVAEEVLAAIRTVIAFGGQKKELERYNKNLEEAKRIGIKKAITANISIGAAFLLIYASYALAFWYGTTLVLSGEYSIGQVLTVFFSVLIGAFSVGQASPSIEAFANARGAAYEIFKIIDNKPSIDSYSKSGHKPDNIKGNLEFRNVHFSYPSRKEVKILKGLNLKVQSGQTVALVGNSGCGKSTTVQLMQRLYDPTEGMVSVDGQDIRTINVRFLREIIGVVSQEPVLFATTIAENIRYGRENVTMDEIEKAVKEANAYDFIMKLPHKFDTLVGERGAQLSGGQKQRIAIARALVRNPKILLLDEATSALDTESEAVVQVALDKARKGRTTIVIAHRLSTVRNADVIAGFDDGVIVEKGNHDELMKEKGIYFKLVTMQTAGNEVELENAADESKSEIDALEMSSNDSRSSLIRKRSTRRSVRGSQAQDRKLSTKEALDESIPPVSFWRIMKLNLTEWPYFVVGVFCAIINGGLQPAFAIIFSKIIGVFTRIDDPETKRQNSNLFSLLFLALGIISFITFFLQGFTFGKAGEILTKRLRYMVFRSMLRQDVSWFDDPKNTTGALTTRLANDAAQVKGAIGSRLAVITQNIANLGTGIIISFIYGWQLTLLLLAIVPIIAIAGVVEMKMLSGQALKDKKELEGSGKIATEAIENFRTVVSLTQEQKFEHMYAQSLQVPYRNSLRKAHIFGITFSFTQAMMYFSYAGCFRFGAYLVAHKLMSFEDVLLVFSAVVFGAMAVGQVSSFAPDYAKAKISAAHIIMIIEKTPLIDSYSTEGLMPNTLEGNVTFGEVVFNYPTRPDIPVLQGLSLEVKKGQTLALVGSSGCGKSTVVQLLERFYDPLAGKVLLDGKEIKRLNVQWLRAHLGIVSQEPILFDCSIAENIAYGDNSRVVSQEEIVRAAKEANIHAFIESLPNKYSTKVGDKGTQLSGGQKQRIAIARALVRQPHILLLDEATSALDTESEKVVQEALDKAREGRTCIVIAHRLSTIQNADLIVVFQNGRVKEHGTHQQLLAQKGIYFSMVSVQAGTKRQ

In the case of `COC(=O)c1c2c(c[n+]([O-])c1C)C(=O)C=C(NCc1ccccc1)C2=O` [Compound 25], the “percentage of proliferating (BrdU-incorporating) cells” value in data set [1] was “significantly reduced the percentage of NCI-H460 proliferating cells”. Also, the “cells in sub-G1 phase” value in data set [2] (0.35 and 0.7 μM) is recorded as “slight increase in the percentage of cells in the sub-G1 phase, although not statistically significant”. The cell cycle profile entry in data set [2] is “increase in the G1 phase and decrease in the S phase”. Also, the DNA damage entry in data set [3] is “did not increase DNA damage”. Moreover, the rhodamine-123 accumulation result in data set [4] is reported as “caused rhodamine accumulation within the cells, in a similar extent to the positive control verapamil”.

For the molecule `COc1cccc2c1C(=O)c1c(O)c3c(c(O)c1C2=O)C[C@@](O)(C(=O)CO)C[C@@H]3O[C@H]1C[C@H](N)[C@H](O)[C@H](C)O1` [doxorubicin, reference compound], the “percentage of proliferating (BrdU-incorporating) cells” value in data set [1] was “significantly reduced the percentage of NCI-H460 proliferating cells”. Further, in data set [2], the cell cycle profile entry is given as “major alterations in the cell cycle profile”.
